Results from patent US12478067B2, “Heterocyclic compound and harmful arthropod pest control composition containing same” (SUMITOMO CHEMICAL COMPANY, LIMITED, priority 2019, dated 2025).

Experiments:
Type in all cases: in vivo
[1] = test system: common house mosquito (Culex pipiens pallens); assay: whole plant or invertebrate; details: 24 h, Test Example 8, last instar larvae, after 1 day, 25° C., read-out: mortality of insects
Description: Mortality (%)=(Number of dead insects/Number of tested insects)×100

[2] = test system: Western corn rootworms (Diabrotica virgifera virgifera); assay: whole plant or invertebrate; details: 120 h, Test Example 9-1, corn seedling immersed 30 seconds, second instar larvae, after 5 days, 25° C., read-out: mortality of insects
Method: Each 1 mg of the test compounds is dissolved into 50 μL of a mixed solution of polyoxyethylene sorbitan mono-cocoate and acetone (polyoxyethylene sorbitan mono-cocoate:acetone=5:95 (v/v ratio)).
A young entire seedling of Corns (Zea mays) is immersed into the diluted solution for 30 seconds. […] Mortality (%)=(Number of dead insects/10}×100

[3] = test system: housefly (Musca domestica); assay: Test method 6: filter paper with sucrose bait, housefly female adults; details: Test Example 6, 0.7 ml on filter paper with sucrose bait, after 24 hours, 25° C., read-out: mortality of insects
Method: A filter paper having a diameter of 5.5 cm in diameter is spread on the bottom of the cup, and then 0.7 ml of the diluted solutions are added dropwise to the filter paper and 30 mg of sucrose is uniformly placed on the filter paper as a bait. Ten (10) housefly (Musca domestica) female adults are released into the cup, and the cup is then covered with the lid. […] Mortality (%)=(Number of dead insects/Number of tested insects)×100

[4] = test system: housefly (Musca domestica); assay: Test method 7: coated container, housefly female adults; details: Test Example 7-1, container coated at 40 mg/m^2 (800 ppm acetone solution), elapsed time 1 hour, 25° C., read-out: mortality of insects
Method: An acetone solution which is adjusted to 800 ppm of the test compound is poured into a container having 20 mL contents, and the test compound is coated uniformly on inner face of the container so as to make 40 mg/m^2 thereof, and the container is then allowed to dry.
Into the container, five (5) housefly (Musca domestica) female adults are released into the container, and the container is then covered with the lid. […] Mortality (%)=(Number of dead insects/Number of tested insects)×100

SMILES	mortality at 3.5 ppm [1] [%]	mortality at 500 ppm [2] [%]	mortality at 500 ppm [3] [%]	mortality at 40 mg/m2 [4] [%]
CCSc1c(-n2cnc3cc(C(F)(F)F)ccc3c2=O)nc2ccc(Br)cn12 [Present compound 2-1]	≥ 91	≥ 80	–	–
CCSc1c(-n2cnc3cc(C(F)(F)F)ccc3c2=O)nc2cc(C(F)(F)F)ccn12 [Present compound 2-15]	≥ 91	–	≥ 70	–
CCSc1c(-n2nnc3ccc(C(F)(F)F)cc3c2=O)nc2ccc(Br)cn12 [Present compound 4-2]	≥ 91	≥ 80	–	≥ 80
